This note sets out measurements from ChEMBL document CHEMBL1933031, “Discovery and bioactivity of 4-(2-arylpyrido[3',2':3,4]pyrrolo[1,2-f][1,2,4]triazin-4-yl) morpholine derivatives as novel PI3K inhibitors” (Bioorg Med Chem Lett, 2012).

In assay [1] the target is Phosphatidylinositol 4,5-bisphosphate 3-kinase catalytic subunit alpha isoform (Homo sapiens, UniProt P42336). Briefly: Inhibition of PI3Kalpha by luminescent kinase assay.
Assay [2] has as its target Mast/stem cell growth factor receptor Kit (Homo sapiens) (UniProt P10721). Briefly: Inhibition of c-Kit at 10 uM.
For assay [3], the target named is Platelet-derived growth factor receptor alpha (Homo sapiens) (UniProt P16234). Briefly: Inhibition of PDGFRalpha at 10 uM.
The target of assay [4] is Platelet-derived growth factor receptor beta (Homo sapiens) (UniProt P09619). Briefly: Inhibition of PDGFRbeta at 10 uM.
The target of assay [5] is Proto-oncogene tyrosine-protein kinase receptor Ret (Homo sapiens) (UniProt P07949). Briefly: Inhibition of RET at 10 uM.
Sequence of Proto-oncogene tyrosine-protein kinase receptor Ret (Homo sapiens) (P07949 whole entry): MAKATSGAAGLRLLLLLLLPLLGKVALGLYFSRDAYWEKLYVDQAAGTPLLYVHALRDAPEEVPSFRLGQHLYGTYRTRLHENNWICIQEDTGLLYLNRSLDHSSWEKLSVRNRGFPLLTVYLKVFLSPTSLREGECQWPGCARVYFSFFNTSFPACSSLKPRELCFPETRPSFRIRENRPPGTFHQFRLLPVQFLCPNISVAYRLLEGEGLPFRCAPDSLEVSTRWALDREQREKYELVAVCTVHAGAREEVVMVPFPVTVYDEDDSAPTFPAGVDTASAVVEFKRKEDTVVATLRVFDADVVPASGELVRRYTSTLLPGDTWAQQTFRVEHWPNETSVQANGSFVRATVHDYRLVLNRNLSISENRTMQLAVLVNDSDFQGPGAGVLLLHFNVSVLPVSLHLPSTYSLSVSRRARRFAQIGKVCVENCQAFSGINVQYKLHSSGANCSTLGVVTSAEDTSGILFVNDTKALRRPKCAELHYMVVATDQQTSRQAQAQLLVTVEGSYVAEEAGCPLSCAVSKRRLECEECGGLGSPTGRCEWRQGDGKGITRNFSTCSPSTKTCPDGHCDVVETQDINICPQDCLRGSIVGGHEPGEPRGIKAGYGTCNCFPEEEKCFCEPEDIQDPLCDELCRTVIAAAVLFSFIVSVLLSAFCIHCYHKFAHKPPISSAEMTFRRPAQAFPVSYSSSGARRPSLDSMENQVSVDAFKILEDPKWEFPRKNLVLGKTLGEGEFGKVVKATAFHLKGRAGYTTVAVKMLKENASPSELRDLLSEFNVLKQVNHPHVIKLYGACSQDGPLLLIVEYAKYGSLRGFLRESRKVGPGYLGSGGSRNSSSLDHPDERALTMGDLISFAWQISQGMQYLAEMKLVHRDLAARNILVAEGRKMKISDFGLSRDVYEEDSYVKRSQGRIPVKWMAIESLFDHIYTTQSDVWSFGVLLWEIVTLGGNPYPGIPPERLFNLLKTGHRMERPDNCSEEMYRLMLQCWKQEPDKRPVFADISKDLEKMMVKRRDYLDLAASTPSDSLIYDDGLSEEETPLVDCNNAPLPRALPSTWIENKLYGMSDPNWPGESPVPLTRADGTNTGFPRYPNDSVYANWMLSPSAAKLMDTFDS
Assay [6] has as its target Receptor tyrosine-protein kinase erbB-2 (Homo sapiens) (UniProt P04626). Briefly: Inhibition of ErbB2 at 10 uM.
The target of assay [7] is T1, Ephrin type-B receptor 2 (Homo sapiens) (UniProt P29323).
T1 sequence (whole entry): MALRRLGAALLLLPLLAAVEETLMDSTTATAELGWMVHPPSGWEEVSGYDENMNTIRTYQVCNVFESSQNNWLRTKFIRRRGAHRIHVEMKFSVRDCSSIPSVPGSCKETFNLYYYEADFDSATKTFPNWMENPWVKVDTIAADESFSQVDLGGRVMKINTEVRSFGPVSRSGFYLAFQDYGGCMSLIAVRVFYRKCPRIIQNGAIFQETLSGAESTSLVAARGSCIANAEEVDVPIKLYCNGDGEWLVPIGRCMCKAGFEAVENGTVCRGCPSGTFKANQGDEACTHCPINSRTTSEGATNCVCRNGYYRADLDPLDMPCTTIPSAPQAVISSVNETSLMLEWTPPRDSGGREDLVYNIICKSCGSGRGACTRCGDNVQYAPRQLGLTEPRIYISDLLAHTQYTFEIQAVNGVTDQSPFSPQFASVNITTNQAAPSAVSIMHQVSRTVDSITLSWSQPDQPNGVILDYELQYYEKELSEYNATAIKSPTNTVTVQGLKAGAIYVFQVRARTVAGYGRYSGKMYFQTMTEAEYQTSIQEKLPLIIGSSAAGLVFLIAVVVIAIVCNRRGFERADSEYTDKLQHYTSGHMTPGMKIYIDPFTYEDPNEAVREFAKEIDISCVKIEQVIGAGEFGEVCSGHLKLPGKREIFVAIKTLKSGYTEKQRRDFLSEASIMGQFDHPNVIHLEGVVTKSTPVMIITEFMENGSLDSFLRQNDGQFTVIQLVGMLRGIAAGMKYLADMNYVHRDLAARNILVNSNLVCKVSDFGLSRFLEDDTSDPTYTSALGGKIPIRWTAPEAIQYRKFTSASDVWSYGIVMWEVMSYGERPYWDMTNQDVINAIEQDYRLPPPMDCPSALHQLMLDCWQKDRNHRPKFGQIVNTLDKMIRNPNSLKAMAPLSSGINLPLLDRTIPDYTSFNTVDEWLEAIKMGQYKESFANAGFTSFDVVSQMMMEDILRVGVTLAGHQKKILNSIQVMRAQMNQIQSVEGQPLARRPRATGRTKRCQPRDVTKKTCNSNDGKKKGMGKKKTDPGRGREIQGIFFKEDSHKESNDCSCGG
Briefly: Inhibition of EPH-B2 at 10 uM.

For assay [8], the target named is Hepatocyte growth factor receptor (Homo sapiens) (UniProt P08581). Briefly: Inhibition of c-Met at 10 uM.
Assay [9] concerns the target Macrophage-stimulating protein receptor (Homo sapiens) (UniProt Q04912). Briefly: Inhibition of RON at 10 uM.
Assay [10] addresses Insulin-like growth factor 1 receptor (Homo sapiens) (UniProt P08069). Briefly: Inhibition of IGF1R at 10 uM.
A short description of assay [11]: Inhibition of PI3K-mediated Akt phosphorylation at Ser473 at 3 uM by Western blot analysis. (In western blotting, separated proteins are transferred to a membrane and probed.)
A short description of assay [12]: Inhibition of PI3K-mediated p70S6K1 phosphorylation at Thr389 at 3 uM by Western blot analysis.
Assay [13] has as its system ECV-304. Briefly: Antiproliferative activity against human ECV304 cells. The class given is functional, cell-based.
Assay [14] has as its system MCF7. Briefly: Antiproliferative activity against human MCF7 cells. The class given is functional, cell-based.
The test system of assay [15] is HT-29. Briefly: Antiproliferative activity against human HT-29 cells. Format: functional, cell-based.
Assay [16] is described as follows: Cell cycle arrest in human Rh30 cells assessed as increase in G1 cell population at 1 to 10 uM by flow cytometric analysis. Format: functional, cell-based. Particulars: SJRH30.
A short description of assay [17]: Cell cycle arrest in human Rh30 cells assessed as increase in subG1 cell phase at 10 uM by flow cytometric analysis. The class given is functional, cell-based. Particulars: SJRH30. (Flow cytometry measures light scatter and fluorescence of single cells or particles in a stream.)
A short description of assay [18]: Inhibition of PI3K-mediated Akt pathway by Western blot analysis.
Assay [19] can be described thus: Inhibition of PI3K-mediated mTOR pathway by Western blot analysis.
The target of assay [20] is Vascular endothelial growth factor receptor 2 (Homo sapiens) (UniProt P35968). To be noted: at 10 µM.
Description: Inhibition of KDR at 10 uM
The target of assay [21] is Epidermal growth factor receptor (Homo sapiens) (UniProt P00533). Particulars: at 10 µM.
Description: Inhibition of EGFR at 10 uM
The target of assay [22] is Proto-oncogene tyrosine-protein kinase Src (Homo sapiens) (UniProt P12931). To be noted: at 10 µM.
Sequence of Proto-oncogene tyrosine-protein kinase Src (Homo sapiens) (P12931 2-536 limits assumed): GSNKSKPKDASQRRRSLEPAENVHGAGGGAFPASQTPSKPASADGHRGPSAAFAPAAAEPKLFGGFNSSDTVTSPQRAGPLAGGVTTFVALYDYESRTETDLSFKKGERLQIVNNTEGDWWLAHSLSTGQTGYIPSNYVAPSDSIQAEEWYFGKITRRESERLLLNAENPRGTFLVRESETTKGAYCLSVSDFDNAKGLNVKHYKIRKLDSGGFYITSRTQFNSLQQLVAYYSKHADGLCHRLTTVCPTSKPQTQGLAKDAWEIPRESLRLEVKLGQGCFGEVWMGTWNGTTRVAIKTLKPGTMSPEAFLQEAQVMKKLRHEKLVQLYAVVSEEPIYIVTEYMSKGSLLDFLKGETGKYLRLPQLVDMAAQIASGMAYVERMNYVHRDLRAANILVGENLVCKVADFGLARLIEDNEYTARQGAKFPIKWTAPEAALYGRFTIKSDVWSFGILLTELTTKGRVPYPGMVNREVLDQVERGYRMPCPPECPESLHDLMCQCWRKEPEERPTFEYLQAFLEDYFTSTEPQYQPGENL
Description: Inhibition of c-Src at 10 uM
Assay [23] can be described thus: Antiproliferative activity against human BEL-7402 cells.

Molecules are shown by their SMILES. pIC50: −log10 of the molar value. The source made the active and inactive calls. No cut-off for these calls is given here. A value given as a limit tells only on which side of the number the result lay.

Sequence of Receptor tyrosine-protein kinase erbB-2 (Homo sapiens) (P04626 whole entry): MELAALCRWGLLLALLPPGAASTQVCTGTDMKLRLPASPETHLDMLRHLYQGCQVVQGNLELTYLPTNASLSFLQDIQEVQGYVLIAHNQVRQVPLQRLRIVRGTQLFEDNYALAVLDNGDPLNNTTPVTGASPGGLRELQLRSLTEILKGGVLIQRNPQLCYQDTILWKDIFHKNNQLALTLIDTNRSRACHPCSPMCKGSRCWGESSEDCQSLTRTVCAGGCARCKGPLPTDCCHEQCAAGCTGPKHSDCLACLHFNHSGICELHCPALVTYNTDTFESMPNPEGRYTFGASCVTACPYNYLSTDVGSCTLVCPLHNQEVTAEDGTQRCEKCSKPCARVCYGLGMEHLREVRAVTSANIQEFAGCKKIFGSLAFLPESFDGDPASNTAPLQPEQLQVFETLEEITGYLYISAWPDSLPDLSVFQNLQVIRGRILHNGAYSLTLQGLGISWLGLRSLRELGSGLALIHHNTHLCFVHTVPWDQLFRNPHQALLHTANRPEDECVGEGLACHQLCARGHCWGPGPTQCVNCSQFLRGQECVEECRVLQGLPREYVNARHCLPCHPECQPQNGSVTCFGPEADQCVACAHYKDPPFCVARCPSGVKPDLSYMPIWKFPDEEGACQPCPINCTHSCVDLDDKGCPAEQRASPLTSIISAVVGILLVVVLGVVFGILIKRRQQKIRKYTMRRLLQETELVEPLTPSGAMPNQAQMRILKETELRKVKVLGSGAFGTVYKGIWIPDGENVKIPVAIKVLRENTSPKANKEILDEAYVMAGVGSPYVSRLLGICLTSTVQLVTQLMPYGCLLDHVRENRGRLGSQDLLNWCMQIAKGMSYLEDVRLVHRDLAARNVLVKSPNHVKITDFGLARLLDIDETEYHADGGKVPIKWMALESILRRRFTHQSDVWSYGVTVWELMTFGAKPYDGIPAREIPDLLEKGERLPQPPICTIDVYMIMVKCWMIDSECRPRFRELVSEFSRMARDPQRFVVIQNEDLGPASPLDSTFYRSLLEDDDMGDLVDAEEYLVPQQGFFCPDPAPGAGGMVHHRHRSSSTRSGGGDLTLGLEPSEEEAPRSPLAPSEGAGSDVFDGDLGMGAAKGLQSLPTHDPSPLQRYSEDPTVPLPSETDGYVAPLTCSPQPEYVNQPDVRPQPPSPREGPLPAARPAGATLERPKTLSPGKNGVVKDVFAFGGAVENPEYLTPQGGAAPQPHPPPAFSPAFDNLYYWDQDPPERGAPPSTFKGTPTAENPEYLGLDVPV
Sequence of Insulin-like growth factor 1 receptor (Homo sapiens) (P08069 31-736 limits assumed): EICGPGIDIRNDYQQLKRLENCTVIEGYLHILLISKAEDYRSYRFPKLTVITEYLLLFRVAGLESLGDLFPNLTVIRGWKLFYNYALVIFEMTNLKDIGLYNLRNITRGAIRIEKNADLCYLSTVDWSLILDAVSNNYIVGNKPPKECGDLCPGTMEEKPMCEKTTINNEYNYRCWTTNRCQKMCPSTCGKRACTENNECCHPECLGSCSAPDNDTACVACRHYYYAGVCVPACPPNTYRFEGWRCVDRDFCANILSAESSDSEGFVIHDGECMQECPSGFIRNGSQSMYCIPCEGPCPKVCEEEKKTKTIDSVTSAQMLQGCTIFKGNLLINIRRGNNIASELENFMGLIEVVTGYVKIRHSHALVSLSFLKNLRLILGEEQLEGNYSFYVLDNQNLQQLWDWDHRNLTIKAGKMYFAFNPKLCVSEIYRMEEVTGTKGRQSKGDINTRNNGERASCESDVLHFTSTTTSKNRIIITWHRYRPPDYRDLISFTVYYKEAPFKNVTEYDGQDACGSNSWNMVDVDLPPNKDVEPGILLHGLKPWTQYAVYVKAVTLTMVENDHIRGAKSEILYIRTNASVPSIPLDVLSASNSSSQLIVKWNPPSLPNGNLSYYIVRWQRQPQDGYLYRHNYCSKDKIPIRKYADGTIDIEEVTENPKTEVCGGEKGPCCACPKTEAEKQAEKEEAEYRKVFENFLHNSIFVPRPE
Sequence of Insulin-like growth factor 1 receptor (Homo sapiens) (P08069 741-1367 limits assumed): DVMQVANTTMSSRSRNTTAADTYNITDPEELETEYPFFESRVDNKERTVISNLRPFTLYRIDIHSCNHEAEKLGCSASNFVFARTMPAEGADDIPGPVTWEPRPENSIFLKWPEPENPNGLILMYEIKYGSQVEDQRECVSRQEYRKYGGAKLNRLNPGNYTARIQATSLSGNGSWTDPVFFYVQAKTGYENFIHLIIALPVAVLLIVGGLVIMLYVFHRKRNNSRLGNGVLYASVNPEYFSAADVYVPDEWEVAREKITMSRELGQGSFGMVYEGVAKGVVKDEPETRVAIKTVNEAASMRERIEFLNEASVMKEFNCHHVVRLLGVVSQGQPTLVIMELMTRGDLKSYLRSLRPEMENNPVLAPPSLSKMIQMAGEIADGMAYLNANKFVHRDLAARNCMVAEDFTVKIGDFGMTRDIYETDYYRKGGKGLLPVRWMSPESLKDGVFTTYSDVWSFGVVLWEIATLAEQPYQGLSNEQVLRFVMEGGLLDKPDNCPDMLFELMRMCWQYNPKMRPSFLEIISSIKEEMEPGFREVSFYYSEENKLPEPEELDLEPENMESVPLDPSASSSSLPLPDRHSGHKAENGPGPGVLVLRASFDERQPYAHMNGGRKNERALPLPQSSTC

Regarding `CCC(=O)Oc1cccc(-c2nc(N3CCOCC3)c3cc4ncccc4n3n2)c1`, the pIC50 (in general, the IC50 on a negative log10 scale, so that one unit is a factor of ten) is 6.26 in [1]; 5.40 in [13]; 4.73 in assay [14]; 4.52 in assay [15]; 5.07 in [23]. Also, the inhibition – broadly, the percentage by which the read-out fell short of the control – in assay [2] is 29%; in assay [3], 13%; in assay [4], 11.8%; in [5], 43%; in assay [6] it was 12.5%; in assay [7], 48.6%. For the same molecule, the inhibition in assay [8] came to 31.7%; in assay [9], 17.6%; in assay [10] it was 23.7%; in assay [20], 25%; in assay [21], 26.8%; in assay [22], 52.8%. Also, the inhibition result in [11] and in assay [12] was “Active” in each case. In addition, the result in [16] and in assay [17] was Active. Also, the “Akt pathway inhibition (qualitative)” value in assay [18] is “Dose-dependent effect”. The “mTOR pathway inhibition (qualitative)” value in [19] was “Dose-dependent effect”.
`CCCC(CCC)C(=O)Oc1cccc(-c2nc(N3CCOCC3)c3cc4ncccc4n3n2)c1`: the pIC50 is 7.22 in assay [1]; 5.60 in [13]; 5.14 in [14]; 4.43 in assay [15]; 5.25 in assay [23]. Besides, the inhibition in assay [2] was found to be 24.9%; in assay [3] it was 28.7%; in assay [4], 13.6%; in [5], 14.4%; in assay [6], 25.6%; in assay [7], 49.2%. For the same molecule, the inhibition in assay [8] stood at 29%; in assay [9], 23.1%; in assay [10], 32.7%; in assay [20] it was 29.1%; in assay [21], 20.2%; in assay [22] it was 49.8%. The inhibition result in assay [11] and in [12] was “Active” each time. Also, the result in assay [16] and in assay [17] was Active. For the same molecule, the “Akt pathway inhibition (qualitative)” value in assay [18] is “Dose-dependent effect”. For the same molecule, in assay [19], the “mTOR pathway inhibition (qualitative)” value was “Dose-dependent effect”.
As to `CCN(CC)CCNC(=O)c1c(C)[nH]c(/C=C2\C(=O)Nc3ccc(F)cc32)c1C`, the inhibition came to 84.8% in assay [2], 93% in assay [3], 90.6% in assay [4] and 84.8% in assay [5].
Turning to `O=C(Oc1cccc(-c2nc(N3CCOCC3)c3cc4ncccc4n3n2)c1)c1ccco1`, the negative logarithm of the IC50 (pIC50) was 6.37 in [1]; 5.22 in assay [13]; 4.89 in assay [14]; 4.67 in assay [15]; 5.03 in assay [23]. The inhibition in assay [2] turned out to be 26.9%; in assay [3], 22.2%; in assay [4] it was 13.5%; in assay [5] it was 22.8%; in [6] it was 23.6%; in [7], 35.8%. Moreover, the inhibition in [8] is 32.5%; in [9], 4.2%; in assay [10], 29.2%; in assay [20] it was 24.7%; in assay [21], 11.8%; in [22], 47.9%. In addition, the inhibition entry in [11] and in assay [12] was “inactive” throughout. In addition, the outcome in assay [16] and in assay [17] was Active. The “Akt pathway inhibition (qualitative)” value in [18] was “Dose-dependent effect”. In addition, the “mTOR pathway inhibition (qualitative)” value in assay [19] is “Dose-dependent effect”.
For `Cc1nc(Nc2ncc(C(=O)Nc3c(C)cccc3Cl)s2)cc(N2CCN(CCO)CC2)n1`, in assay [7], the inhibition was 89.2%.
Consider `N#C/C(=C\c1ccc(O)c(O)c1)C(=O)c1ccc(O)c(O)c1`, for which, in [10], the inhibition worked out at 82.2%.
As for `C=CC(=O)Oc1cccc(-c2nc(N3CCOCC3)c3cc4ncccc4n3n2)c1`, the pIC50 was 7.32 in assay [1]; 5.40 in assay [13]; 4.82 in assay [14]; 4.52 in [15]; 5.10 in [23]. For the same molecule, the inhibition is 18.9% in assay [2]; 29.4% in assay [3]; 6.3% in [4]; 31.9% in assay [5]; 21.3% in assay [6]; 53.4% in assay [7]. Besides, the inhibition in [8] turned out to be 32.8%; in assay [9], 3.3%; in assay [10] it was 41.1%; in assay [20] it was 28.4%; in [21], 17.8%; in assay [22], 56.2%. For the same molecule, the inhibition entry in assay [11] and in [12] was “Active” throughout. Moreover, the outcome in assay [16] and in assay [17] was Active. In addition, the “Akt pathway inhibition (qualitative)” value in assay [18] is “Dose-dependent effect”. Moreover, the “mTOR pathway inhibition (qualitative)” value in assay [19] was “Dose-dependent effect”.
Turning to `CS(=O)(=O)CCNCc1ccc(-c2ccc3ncnc(Nc4ccc(OCc5cccc(F)c5)c(Cl)c4)c3c2)o1`, the inhibition in assay [6] worked out at 78%.
For `Oc1cccc(-c2nc(N3CCOCC3)c3oc4ncccc4c3n2)c1` [PI-103], the pIC50 was 5.20 in assay [13], 4.65 in assay [14], less than 4.30 in [15] and 5.15 in assay [23]. For the same molecule, in assay [16], the outcome was Active.
Take `CCCC(=O)Oc1cccc(-c2nc(N3CCOCC3)c3cc4ncccc4n3n2)c1`: the pIC50 is 6.29 in assay [1]; 5.85 in [13]; 5.21 in assay [14]; 4.79 in [15]; 5.44 in [23]. Besides, the inhibition came to 25.4% in assay [2]; 14% in assay [3]; 5.1% in [4]; 25.8% in assay [5]; 12.5% in assay [6]; 53% in assay [7]. Besides, the inhibition stood at 33.9% in assay [8]; 7.4% in assay [9]; 15.6% in assay [10]; 25.6% in assay [20]; 16% in assay [21]; 48.2% in assay [22]. The inhibition entry in assay [11] and in assay [12] was “Active” each time. Moreover, the outcome in [16] and in assay [17] was Active. For the same molecule, the “Akt pathway inhibition (qualitative)” value in assay [18] was “Dose-dependent effect”. Also, the “mTOR pathway inhibition (qualitative)” value in [19] is “Dose-dependent effect”.
Take `Cc1[nH]c(/C=C2\C(=O)Nc3ccc(S(=O)(=O)N(C)c4cccc(Cl)c4)cc32)c(C)c1C(=O)N1CCN(C)CC1`: the inhibition came out at 61.8% in assay [8] and 52.2% in [9].
